Test results as given in patent publication US20220227762A1, “AMIDE-SUBSTITUTED IMIDAZO COMPOUNDS AS SELECTIVE INHIBITORS OF INDOLEAMINE 2,3-DIOXYGENASES” (BEIGENE, LTD., priority 2019, published 2022).
Like-named read-outs stand apart in the source and are kept apart here.

Experiments:
IDO1 = target: T1, IDO1 (Homo sapiens, UniProt P14902); assay: HeLa Cell-Based IDO1 Kyn (Kynurenine) Production Assay
T1 construct: endogenous in cells; host or cells: HeLa cells (American Type Culture Collection), induced with human recombinant IFN-γ
T1 sequence (P14902 whole entry): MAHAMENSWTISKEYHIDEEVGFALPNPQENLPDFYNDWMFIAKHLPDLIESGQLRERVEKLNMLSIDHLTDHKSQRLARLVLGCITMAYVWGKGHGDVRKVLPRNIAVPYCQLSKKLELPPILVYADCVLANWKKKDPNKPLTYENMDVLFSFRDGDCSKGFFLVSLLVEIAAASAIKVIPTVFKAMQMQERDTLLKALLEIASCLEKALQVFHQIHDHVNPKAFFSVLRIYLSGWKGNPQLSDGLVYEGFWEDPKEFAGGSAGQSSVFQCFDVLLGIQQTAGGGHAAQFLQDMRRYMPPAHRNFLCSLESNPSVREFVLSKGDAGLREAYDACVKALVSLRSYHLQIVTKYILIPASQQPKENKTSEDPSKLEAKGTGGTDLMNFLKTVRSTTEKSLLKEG
Procedure: HeLa Cell-Based IDO1 Kyn (Kynurenine) Production Assay:
The inhibitory activity of IDO1 inhibitors is determined by using a colorimetric reaction to measure Kyn generated from L-Trp (L-Tryptophon) oxidation by cellular IDO1 in HeLa cells after induction of IDO1 expression by IFN-γ. Hela cells were obtained from the American Type Culture Collection and recovered in 10% FBS-containing phenol red-free DMEM medium. Cells were plated onto a 96-well plate (100 μl/well) at 8000 cells per well and kept at 37° C. in a humidified incubator supplied with 5% CO2. 4 hours later, Human recombinant IFN-γ (8901SC, CST) was added to cells (final concentration 100 ng/mL) to stimulate endogenous IDO1. Compounds at different concentrations diluted in dimethylsulfoxide (DMSO) were added simultaneously with IFN-γ and 0.4 mM L-Trp. Cells were kept at 37° C. in a humidified incubator supplied with 5% CO2. After 48 hours of incubation, 100 μl supernatant from each well was removed to a new plate. The protein in the medium was precipitated with the addition of 8 μl 6N trichloroacetic acid. The plate was incubated at 60° C. for 30 minutes and then centrifugation at 2500 rpm for 10 minutes to remove sediments. 80 μl supernatants were carefully removed to a new clean plate and added with an equal volume of 2% 4-(Dimethylamino)benzaldehyde (D2004, Sigma) dissolved in glacial acetic acid. The absorbance at 480 nm wavelength derived from Kyn was measured using a PHERAstar FS plate reader (BMG LABTECH). The IC50 for each compound was derived from fitting the dose-response data to the four-parameter logistic model by using XLfit software (IDBS).

plasma protein = assay: Plasma Protein Binding Assay (equilibrium dialysis); assay type: in vitro ADME; settings: 50% plasma, Human plasma, 37° C., read-out: Plasma Protein Binding assay (fu %) Human
Procedure: Plasma Protein Binding Assay:
To evaluate the plasma protein binding extent, the bound (fb) and unbound (fu) fractions of test compound will be determined in vitro by equilibrium dialysis approach, using a 96-well dialysis device (HT Dialysis, Gales Ferry, Conn., USA). The equilibrium dialysis will be conducted in duplicate. A hundred and fifty μL of 50% plasma spiked with the test compound (final concentration of 5 μM) will be added into the donor side and 150 μL of Phosphate Buffer (PB) (0.002% Tween-80) into the corresponding receiving side. The device will be then sealed with adhesive film and shook at 80 rpm in the water bath at 37° C. for 6 h. At the end of incubation, 10 μL plasma sample will be transferred from the donor side into a 1.5 mL microcentrifuge tube, added with 90 μL PB (0.002% Tween-80), vortexed well and proteins precipitated by acetonitrile containing internal standard (IS). Ninety μL of PB (0.002% Tween-80) sample will be transferred from the receiver side into a 1.5 mL microcentrifuge tube, added with 10 μL 50% blank plasma, vortexed well and proteins precipitated by acetonitrile containing IS.
For recovery check, […] of the donor side loading samples will be aliquoted into a 1.5 mL microcentrifuge tube (in duplicate), added with 90 μL PB (0.002% Tween-80), vortexed well and proteins precipitated by acetonitrile containing IS.
For plasma stability check, 10 μL of the donor side loading samples will be aliquoted into a 1.5 mL microcentrifuge tube (in duplicate), incubated in the water bath at 37° C. for 6 h, added with 90 μL PB (0.002% Tween-80) solution at the end of the incubation, vortexed well and proteins precipitated by acetonitrile containing IS.
Appropriate LC-MS/MS methods will be developed for the analysis of the test or control compounds in the incubates.
The unbound fraction (fu) of the test compound and positive control compounds in 50% plasma will be calculated using the following equations.
Where CR is the area ratio of the test compounds to the IS in the receiving side, CD is the area ratio of the test compound to the IS in the corresponding donor side and D is the dilution factor of plasma.

[1] = HeLa cells, IDO1 induced by IFN-γ, 0.4 mM L-Trp, 48 hours incubation, Kyn absorbance at 480 nm, read-out: Cell-Based EC50 (nM) Hela IDO1

Structure (SMILES) | EC50 (IDO1; [1]) | fraction unbound at 6 h, 5 μM (plasma protein) | EC50 (IDO1)
C[C@@H](c1nc2c(F)c(F)c(F)cc2[nH]1)[C@H]1CC[C@@H](c2ccnc3ccc(F)cc32)CC1 [Example 29, 6-fluoro-4-((1S,4s)-4-((R)-1-(4,5,6-trifluoro-1H-benzo[d]imidazol-2-yl)ethyl)cyclohexyl)quinoline, reference compound] | 0.85 nM | 0.0002 | –
C[C@@H](c1nc2cc(C(=O)NC3CC3)ncc2[nH]1)[C@H]1CC[C@@H](c2ccnc3ccc(F)cc32)CC1 [Example 22b, N-cyclopropyl-2-((R)-1-((1s,4s)-4-(6-fluoroquinolin-4-yl)cyclohexyl)ethyl)-3H-imidazo[4,5-c]pyridine-6-carboxamide] | 0.96 nM | 0.0047 | –
C[C@H](c1nc2cnc(C(=O)NC3CC3)cc2[nH]1)[C@H]1CC[C@@H](c2ccnc3ccc(F)cc32)CC1 [Example 22a, N-cyclopropyl-2-((S)-1-((1s,4R)-4-(6-fluoroquinolin-4-yl)cyclohexyl)ethyl)-1H-imidazo[4,5-c]pyridine-6-carboxamide] | 267 nM | 0.0056 | –
COC(=O)c1ccc2[nH]c([C@H](C)[C@H]3CC[C@@H](c4ccnc5ccc(F)cc54)CC3)nc2c1 [Example 28b, methyl 2-((R)-1-((1s,4S)-4-(6-fluoroquinolin-4-yl)cyclohexyl)ethyl)-1H-benzo[d]imidazole-5-carboxylate, reference compound] | 0.55 nM | 0.00067 | –
C[C@@H](c1nc2cc(F)c(F)cc2[nH]1)[C@H]1CC[C@@H](c2ccnc3ccc(F)cc32)CC1 [Example 27b, 4-((1S,4s)-4-((R)-1-(5,6-difluoro-1H-benzo[d]imidazol-2-yl)ethyl)cyclohexyl)-6-fluoroquinoline, reference compound] | – | 0.00034 | 0.42 nM
C[C@@H](c1nc2cc(C(=O)NC3CCC3)ccc2[nH]1)[C@H]1CC[C@@H](c2ccnc3ccc(F)cc32)CC1 [Example 4, N-cyclobutyl-2-((R)-1-((1s,4S)-4-(6-fluoroquinolin-4-yl)cyclohexyl)ethyl)-1H-benzo[d]imidazole-6-carboxamide] | 26.9 nM | 0.002 | –
CNC(=O)c1cc2[nH]c([C@@H](C)[C@H]3CC[C@@H](c4ccnc5ccc(F)cc54)CC3)nc2cn1 [Example 23a, 2-((S)-1-((1s,4R)-4-(6-fluoroquinolin-4-yl)cyclohexyl)ethyl)-N-methyl-1H-imidazo[4,5-c]pyridine-6-carboxamide] | 223 nM | 0.0072 | –
CNC(=O)c1cc2[nH]c([C@H](C)[C@H]3CC[C@@H](c4ccnc5ccc(F)cc54)CC3)nc2cn1 [Example 23b, 2-((R)-1-((1s,4S)-4-(6-fluoroquinolin-4-yl)cyclohexyl)ethyl)-N-methyl-1H-imidazo[4,5-c]pyridine-6-carboxamide] | 3.83 nM | 0.0053 | –
C[C@@H](c1nc2ccc(C(=O)NCC3(O)CCC3)cc2[nH]1)[C@H]1CC[C@@H](c2ccnc3ccc(F)cc32)CC1 [Example 16, 2-((R)-1-((1s,4S)-4-(6-fluoroquinolin-4-yl)cyclohexyl)ethyl)-N-((1-hydroxycyclobutyl)methyl)-1H-benzo[d]imidazole-6-carboxamide] | > 1000 nM | – | –
